Laboratory results reported in patent US5736629A, “Herbicide resistant rice” (priority 1997, dated 1998).

Legend:
[1] = biological target: T1, AHAS (acetohydroxyacid synthase) in enzyme extracts from normal rice variety Mercury (Oryza sativa subsp. japonica, UniProt Q6K2E8); experiment: AHAS enzyme assay, extract from rice variety Mercury; format: biochemical
T1 construct: 40.0 grams (fresh weight) of tissue were extracted in the same manner for each of the three varieties; from tissue; host or cells: stem tissue of greenhouse-grown rice seedlings, variety Mercury (leaf blades removed)
T1 sequence (Q6K2E8 40-644 limits assumed): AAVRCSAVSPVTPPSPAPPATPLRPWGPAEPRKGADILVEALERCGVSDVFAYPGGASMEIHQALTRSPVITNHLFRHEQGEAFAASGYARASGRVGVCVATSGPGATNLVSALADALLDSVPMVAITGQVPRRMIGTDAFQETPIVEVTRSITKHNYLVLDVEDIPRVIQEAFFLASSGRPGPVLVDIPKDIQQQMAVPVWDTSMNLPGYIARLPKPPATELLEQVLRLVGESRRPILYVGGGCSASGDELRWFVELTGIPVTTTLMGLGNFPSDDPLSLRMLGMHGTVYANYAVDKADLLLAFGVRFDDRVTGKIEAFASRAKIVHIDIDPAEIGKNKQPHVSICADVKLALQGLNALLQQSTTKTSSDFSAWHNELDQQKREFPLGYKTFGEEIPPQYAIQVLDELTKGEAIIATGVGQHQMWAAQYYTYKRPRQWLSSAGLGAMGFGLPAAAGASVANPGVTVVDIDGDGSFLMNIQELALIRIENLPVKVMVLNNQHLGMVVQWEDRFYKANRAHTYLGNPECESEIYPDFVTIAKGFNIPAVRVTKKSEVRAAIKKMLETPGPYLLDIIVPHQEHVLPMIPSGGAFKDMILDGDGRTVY
From the text: The herbicide resistance of the AHAS enzyme from the ATCC 75295 rice line was compared to the resistance of the AHAS enzymes from the rice varieties "Lemont" and "Mercury," the varieties that were the ancestors of this rice line. The procedures used to assay the activity of acetohydroxyacid synthase were substantially as described in B. K. Singh et al., "Assay of Acetohydroxyacid Synthase," Analytical Biochemistry, vol. 171, pp. 173-179 (1988), except as noted. In the first paragraph of Singh's "Materials and Methods," instead of corn suspension culture cells, stem tissues from greenhouse-grown rice seedlings at the four-leaf stage of development were used. Leaf blades were removed, and 40.0 grams (fresh weight) of tissue were extracted in the same manner for each of the three varieties. […] Pursuit herbicide (imazethapyr) was included in the "standard reaction mixture" for the AHAS assay in the concentrations indicated in Table 1 below. Checks were made of direct acetoin formation during the enzyme assay. Each treatment was conducted with two replicates.

[2] = tested on: Non-Resistant Control rice plants (check varieties); experiment: Greenhouse test of plant vigor after imazethapyr, non-resistant controls; format: in vivo; details: for Rating of rice plant vigor: 36 days after treatment at 2-3 leaf stage, 10-point scale, 0 = dead plant, 10 = no visible injury
From the text: (§1) In the greenhouse tests, pots were planted with F3 seed from crosses between the two lines. Each pot was planted with seed from a single panicle from a single plant; each pot was therefore the equivalent of a headrow. A total of 140 pots were planted in this manner, along with 40 pots of various non-resistant genotypes for comparison. Imazethapyr was applied at the 2-3 leaf stage two weeks after planting, at rates equivalent to 0.063 lb. active ingredient (a.i.) per acre, 0.125 lb. a.i./acre, and 0.313 lb. a.i./acre.
(§2) Table 2 summarizes measurements taken 36 days after spraying rice at the 2-3 leaf stage of development.

[3] = tested on: rice line ATCC 97523 (second resistance mechanism only); experiment: Greenhouse test of plant vigor after imazethapyr, ATCC 97523; format: in vivo; details: for Rating of rice plant vigor: 36 days after treatment at 2-3 leaf stage, 10-point scale, 0 = dead plant, 10 = no visible injury
From the text: as §1, §2

[4] = tested on: single surviving plant derived from rice variety AS3510 treated with 0.5% EMS; experiment: Field screen of mutagenised rice seedlings, surviving plant; format: in vivo; details: imazethapyr 0.125 lb a.i. per acre (2X), 0.25% non-ionic surfactant; 3-4 leaf stage; about four weeks later
From the text: (§3) The second resistance mechanism resulted from inducing mutations in seeds of each of ten rice varieties. Mutations were induced by exposure either to gamma rays or to the chemical mutagen ethyl methanesulfonate (EMS). Ten-pound lots of seed of each variety were subjected to 25 k-rad of gamma irradiation from a Cobalt-60 source at the Nuclear Science Center, Louisiana State University, Baton Rouge, La. prior to planting. An additional ten pounds of seed of each variety was divided into three equal portions; and each portion was soaked for 16 hours in either 0.1%, 0.5%, or 1% EMS immediately prior to planting. Several hundred pounds of seed were harvested from plants grown from the seeds subjected to these mutagenic treatments.
(§4) The following spring the harvested seed was planted in strips in a field planting occupying a total of about three acres. At the 3-4 leaf stage of seedling development, herbicides were applied to screen for herbicide-resistant mutants. Half of the seedlings of each variety were sprayed with a 2X treatment of nicosulfuron, and half were sprayed with a 2X treatment of imazethapyr, in both cases by a tractor-mounted sprayer. Nicosulfuron was applied at the rate of 0.063 lb active ingredient (a.i.) per acre, and imazethapyr was applied at 0.125 lb a.i. per acre. Non-ionic surfactant (0.25%) was added to each spray solution. […]

[5] = tested on: mutagenised rice seedlings of ten rice varieties; experiment: Field screen of mutagenised rice seedlings, all other plants; format: in vivo; details: 2X treatment: nicosulfuron 0.063 lb a.i. per acre, imazethapyr 0.125 lb a.i. per acre; 0.25% non-ionic surfactant; 3-4 leaf stage; about four weeks later
From the text: as §3, §4

[6] = tested on: progeny of the mutant rice plant (ATCC 97523); experiment: Subsequent greenhouse and field testing of progeny of the surviving plant; format: in vivo; details: herbicides applied either pre-emergence or post-emergence
From the text: (Imazamox is sold by American Cyanamid under the trade name Raptor, and has as active ingredient (+)-5-methoxymethyl-2-(4-isopropyl-4-methyl-5-oxo-2-imidazolin-2-yl) nicotinic acid. Imazameth is sold by American Cyanamid under the trade name Cadre, and has as active ingredient (±)-2-[4,5-dihydro-4-methyl-4-(1-methyl-ethyl)-5-oxo-1H-imidazol-2-yl]- 5-methyl-3-pyridinecarboxylicacid;alternatechemicalname (±)-2-(4-isopropyl-4-methyl-5-oxo-2-imidazolin-2-yl)-5-methylnicotinic acid). Imazapyr is sold by American Cyanamid under the trade name Arsenal, and has active ingredient 2-[4,5-dihydro-4-methyl-4-(1-methylethyl)-5-oxo-1H-imidazol-2-yl]-3-pyridinecarboxylic acid) This line is resistant to herbicides applied either pre-emergence or post-emergence.

`CCc1cnc(C2=NC(C)(C(C)C)C(=O)N2)c(C(=O)O)c1` (racemic) [imazethapyr, (±)-2-[4,5-dihydro-4-methyl-4-(1-methylethyl)-5-oxo-1H-imidazol-2-yl]-5-ethyl-3-pyridinecarboxylic acid] gave an activity at 0.1 µM ([1]; imazethapyr 0.1 μM) of 100%, an activity at 1 µM ([1]; imazethapyr 1 μM) of 89% and an activity at 10 µM ([1]; imazethapyr 10 μM) of 64%. For the same compound, the activity at 100 µM ([1]; imazethapyr 100 μM) was 62%, the “Rating of rice plant vigor” value ([2]; 0.063 lb. a.i./acre) was 0.33 ± 0.18 and the “Rating of rice plant vigor” value ([2]; 0.125 lb. a.i./acre) was 0.12 ± 0.06. For the same compound, the “Rating of rice plant vigor” value ([2]; 0.313 lb. a.i./acre) was 0.15 ± 0.15, the Mortality ([2]; check varieties, all treatments (0.063, 0.125, 0.313 lb. a.i./acre)) was 100% and the “Effect on plants (in words)” value ([2]; non-resistant rice, 0.063 pounds active ingredient per acre) was “completely killed”. The “Effect on plants (in words)” value ([2]; nonresistant controls, each of the nonzero rates (0.063, 0.125, 0.313 lb. a.i./acre)) was “killed”, the “Rating of rice plant vigor” value ([3]; 0.063 lb. a.i./acre) was 9.01 ± 0.59 and the “Rating of rice plant vigor” value ([3]; 0.125 lb. a.i./acre) was 5.71 ± 0.93. For the same compound, the “Rating of rice plant vigor” value ([3]; 0.313 lb. a.i./acre) was “about 4.0”, the “Rating of rice plant vigor” value ([3]; 0.313 lb. a.i./acre, listed as Imazethapyr) was 4.00 ± 0.32 and the “Time to visible resumption of growth after herbicide application” value ([3]; ATCC 97523 plants, greenhouse test) was “about two weeks”. The “Visible injury (in words)” value ([3]; plants with only the second resistance mechanism, 0.313 lb a.i./acre, 36 days after treatment) was “substantial injury”, the “Symptoms of injury (in words)” value [4] was “No symptoms of injury” and the “Symptoms of injury (in words)” value [5] was “either severely injured or dead”. The “Resistance of the rice line (in words)” value [6] was “resistance”.
